Results on two compounds are retold here after PMC6277545, “Structural Basis for the Limited Response to Oxidative and Thiol-Conjugating Agents by Triosephosphate Isomerase From the Photosynthetic Bacteria Synechocystis” (Frontiers in Molecular Biosciences, 2018).

What all share (format): biochemical
The target of assay [1] is T1, HsTPI (Homo sapiens, UniProt P60174, L109T/S106T/V102Y).
T1 construct: gene TPI1; source and expression not described; dimer
The assay can be described thus: activity with / without ornidazole after […] h.

The target in assay [2] is T2, SyTPI (Synechocystis sp. PCC 6803, UniProt Q59994).
T2 construct: gene tpiA; full length, codon-optimised, E. coli BL21(DE3) delta-tpi; His tag cut by PreScission, extra Gly-Pro-His before Met1; homodimer 54 kDa
The assay can be described thus: residual activity after […] min incubation, coupled assay.

Assay [3] deals with T3, HsTPI (Homo sapiens, UniProt P60174).
T3 construct: gene TPI1; source and expression not described; dimer
The description is as above.

For assay [4], the target named is T4, AtcTPI (Arabidopsis thaliana, UniProt P48491).
T4 construct: gene CTIMC; cytosolic isoform, purified dimer; expression not described here
The assay can be described thus: residual activity after […] h incubation with reagent, coupled assay. The note with it: read-out: concentration giving 50% of original activity.

Assay [5] deals with T5, AtpdTPI (Arabidopsis thaliana, UniProt Q9SKP6).
T5 construct: gene TIM; expression not described here
Described as above. To be noted: read-out: concentration giving 50% of original activity.

Assay [6] concerns the target T2, SyTPI. Described as above. To be noted: read-out: % activity at 0.5 mM.

T2 sequence (Q59994 whole entry): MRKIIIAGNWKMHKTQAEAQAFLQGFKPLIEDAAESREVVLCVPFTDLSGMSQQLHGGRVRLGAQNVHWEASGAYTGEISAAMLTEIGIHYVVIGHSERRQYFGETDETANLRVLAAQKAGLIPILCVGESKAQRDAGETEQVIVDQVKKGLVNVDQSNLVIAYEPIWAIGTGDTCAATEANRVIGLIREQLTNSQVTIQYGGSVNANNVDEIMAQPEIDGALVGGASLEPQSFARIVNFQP
T3 sequence (P60174 2-249): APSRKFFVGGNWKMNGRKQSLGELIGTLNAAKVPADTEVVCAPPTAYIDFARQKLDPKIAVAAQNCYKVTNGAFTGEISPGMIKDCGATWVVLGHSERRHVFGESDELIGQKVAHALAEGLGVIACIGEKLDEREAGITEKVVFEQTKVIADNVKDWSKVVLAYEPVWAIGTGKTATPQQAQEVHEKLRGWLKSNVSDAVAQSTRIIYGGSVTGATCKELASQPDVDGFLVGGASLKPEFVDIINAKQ
T1 sequence (P60174 2-249 V102Y/S106T/L109T): as the sequence (P60174 2-249) above, with V101Y, S105T, L108T counted along it
T4 sequence (P48491 whole entry, canonical isoform): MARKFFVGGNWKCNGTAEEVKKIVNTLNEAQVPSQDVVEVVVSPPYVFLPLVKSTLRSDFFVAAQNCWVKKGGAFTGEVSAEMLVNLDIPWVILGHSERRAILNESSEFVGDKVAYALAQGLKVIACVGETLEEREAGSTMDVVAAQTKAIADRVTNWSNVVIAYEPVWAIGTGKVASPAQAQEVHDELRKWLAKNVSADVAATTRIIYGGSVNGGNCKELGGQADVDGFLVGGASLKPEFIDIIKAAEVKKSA
T5 sequence (Q9SKP6 60-315 limits assumed): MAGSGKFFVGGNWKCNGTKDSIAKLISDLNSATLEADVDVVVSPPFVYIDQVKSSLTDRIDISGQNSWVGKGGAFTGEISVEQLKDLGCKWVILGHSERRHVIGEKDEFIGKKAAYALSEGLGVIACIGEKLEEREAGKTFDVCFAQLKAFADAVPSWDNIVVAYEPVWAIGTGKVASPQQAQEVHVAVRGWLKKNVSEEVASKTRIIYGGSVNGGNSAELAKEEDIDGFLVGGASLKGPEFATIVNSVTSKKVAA

One may read the inhibition as the change of the read-out against control, counted positive when it falls. A low value points to little suppression. Regarding `Cc1ncc([N+](=O)[O-])n1CC(O)CCl` (stereo not drawn) [ornidazole], the results for the activity at 50 µM in assay [1] and in assay [3] were about 60% and 90%, respectively. Besides, the inhibition at 50 µM in assay [2] is about 80%.

In the case of `CSS(C)(=O)=O` [S-methyl methanethiosulfonate], the values for the IC50 in assay [4] and in assay [5] were 0.005 µM and 18 µM, respectively. The activity at 500 µM in assay [6] came out at 50%.
